# pKi: −log10 of the molar value.
# Tests used:
# [1] = target: 5-hydroxytryptamine receptor 2A (Homo sapiens, UniProt P28223)
# Description: Binding affinity towards serotonin 5-hydroxytryptamine 2A receptor
# [2] = target: T1, 5-hydroxytryptamine receptor 2C (Homo sapiens, UniProt P28335)
# T1 sequence (P28335 whole entry): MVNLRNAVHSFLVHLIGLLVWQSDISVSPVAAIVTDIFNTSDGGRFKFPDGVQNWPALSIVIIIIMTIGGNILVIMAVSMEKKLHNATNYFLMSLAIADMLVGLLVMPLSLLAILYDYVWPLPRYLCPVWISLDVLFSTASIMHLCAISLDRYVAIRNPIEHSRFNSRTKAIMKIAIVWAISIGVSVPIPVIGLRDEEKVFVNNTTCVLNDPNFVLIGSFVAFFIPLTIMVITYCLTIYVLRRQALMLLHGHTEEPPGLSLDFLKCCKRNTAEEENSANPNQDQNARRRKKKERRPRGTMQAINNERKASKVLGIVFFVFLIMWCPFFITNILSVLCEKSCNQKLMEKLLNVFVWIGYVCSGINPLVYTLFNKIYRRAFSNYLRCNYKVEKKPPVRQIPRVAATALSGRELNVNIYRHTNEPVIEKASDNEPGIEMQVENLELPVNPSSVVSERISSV
# Description: Binding affinity towards serotonin 5-hydroxytryptamine 2C receptor
# 5-hydroxytryptamine receptor 2A, sequence (P28223 whole entry): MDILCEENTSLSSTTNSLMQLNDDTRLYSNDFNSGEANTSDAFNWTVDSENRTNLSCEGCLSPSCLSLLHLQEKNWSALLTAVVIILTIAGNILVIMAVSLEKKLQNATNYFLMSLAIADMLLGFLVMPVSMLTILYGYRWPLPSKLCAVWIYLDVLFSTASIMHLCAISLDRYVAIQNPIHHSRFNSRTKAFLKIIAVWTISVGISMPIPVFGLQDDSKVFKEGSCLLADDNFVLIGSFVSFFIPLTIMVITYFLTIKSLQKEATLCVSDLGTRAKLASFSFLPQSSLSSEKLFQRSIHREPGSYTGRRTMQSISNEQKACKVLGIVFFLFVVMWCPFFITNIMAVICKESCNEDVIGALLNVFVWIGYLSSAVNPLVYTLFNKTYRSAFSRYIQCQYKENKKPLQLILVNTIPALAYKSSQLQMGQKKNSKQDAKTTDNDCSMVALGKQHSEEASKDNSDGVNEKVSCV
Structure (SMILES),pKi [1],pKi [2]
COc1ccc2c(c1)CC(CN1CCC(C(=O)c3ccc(F)cc3)CC1)CC2=O (racemic),7.75,5.93
O=C1CC(CN2CCC(c3noc4cc(F)ccc34)CC2)Cc2ccccc21 (racemic),8.57,6.89
O=C1CC(CN2CCC(C(=O)c3ccc(F)cc3)CC2)Cc2ccccc21 (racemic),7.88,6.30
COc1ccc2c(c1)CC(CN1CCC(c3noc4cc(F)ccc34)CC1)CC2=O (racemic),,5.79
"COc1ccc2c(c1)CC(CN1CCC(C(=O)c3ccc(F)cc3)CC1)CC2=O (single isomer, unassigned; (+))",7.95,5.96
"COc1ccc2c(c1)CC(CN1CCC(C(=O)c3ccc(F)cc3)CC1)CC2=O (single isomer, unassigned; (-))",7.79,6.01
O=C1CC(CN2CCC(C(=O)c3ccc(F)cc3)CC2)Cc2ccccc21 (stereo in doubt; (+)-7c),7.63,6.31
O=C1CC(CN2CCC(c3noc4cc(F)ccc34)CC2)Cc2ccccc21 (stereo in doubt; (+)-7d),7.53,6.18
O=C1CC(CN2CCC(C(=O)c3ccc(F)cc3)CC2)Cc2ccccc21 (stereo in doubt; (-)-7c),8.23,6.11
O=C1CC(CN2CCC(c3noc4cc(F)ccc34)CC2)Cc2ccccc21 (stereo in doubt; (-)-7d),8.20,6.08

# Now from value to compound:
pKi [1],pKi [2],Structure (SMILES)
6.18,< 5.00,COc1cc2c(cc1OC)C(=O)CC(CN1CCN(c3ccccn3)CC1)C2 (racemic)
6.01,5.48,O=C1CC(CN2CCN(c3ccccn3)CC2)Cc2ccccc21 (racemic)
8.02,,COc1cc2c(cc1OC)C(=O)CC(CN1CCC(c3noc4cc(F)ccc34)CC1)C2 (racemic)
8.22,7.08,COc1cc2c(cc1OC)C(=O)CC(CN1CCC(C(=O)c3ccc(F)cc3)CC1)C2 (racemic)
6.05,7.33,COc1ccc2c(c1)CC(CN1CCN(c3ccccc3OC)CC1)CC2=O (racemic)
5.63,< 5.00,COc1cc2c(cc1OC)C(=O)CC(CN1CCN(c3ccccc3OC)CC1)C2 (racemic)
6.29,,COc1ccccc1N1CCN(CC2CC(=O)c3ccccc3C2)CC1 (racemic)
6.16,5.34,COc1ccc2c(c1)CC(CN1CCN(c3ccccn3)CC1)CC2=O (racemic)
7.36,6.24,"COc1cc2c(cc1OC)C(=O)CC(CN1CCC(C(=O)c3ccc(F)cc3)CC1)C2 (single isomer, unassigned; (+))"
8.83,6.29,"COc1ccc2c(c1)CC(CN1CCC(c3noc4cc(F)ccc34)CC1)CC2=O (single isomer, unassigned; (+))"
8.25,6.78,"COc1cc2c(cc1OC)C(=O)CC(CN1CCC(C(=O)c3ccc(F)cc3)CC1)C2 (single isomer, unassigned; (-))"
7.58,6.08,"COc1ccc2c(c1)CC(CN1CCC(c3noc4cc(F)ccc34)CC1)CC2=O (single isomer, unassigned; (-))"
8.14,,COc1cc2c(cc1OC)C(=O)CC(CN1CCC(c3noc4cc(F)ccc34)CC1)C2 (stereo in doubt; (-)-9d)

# From ChEMBL document CHEMBL1149215, “Chemoenzymatic synthesis and binding affinity of novel (R)- and (S)-3-aminomethyl-1-tetralones, potential atypical antipsychotics” (Bioorg Med Chem Lett, 2004)
